Patent publication US20100173832A1, “ANTICANCEROUS POLYMERIC AGENTS” (TECHNION RESEARCH & DEVELOPMENT FOUNDATION LTD., priority 2007, published 2010)
Where two headings read alike, the source gives them in different places. Non-standard residues stand in square brackets, D forms with d. Residues, ends and D or L forms follow the SMILES beside them. *: point of attachment. 12Ado = NCCCCCCCCCCCC(=O)O; Octanoyl = CCCCCCCC(=O)*

Tests used:
TRAMP-C2 cell line = format: cell-based; conditions: for CC50: 24 hours incubation, XTT, read-out: Cancer LC50 Mouse prostate cancer TRAMP-C2
Source text: Transgenic adenocarcinoma mouse prostate cells (TRAMP-C2);
(§1) As a routine cancer cell killing assay for assessment of antitumor activity, 2,3-bis(2-methoxy-4-nitro-5-sulfophenyl)-2H-tetrazolium-5-carboxanilide inner salt (XTT) reduction assay was used, utilizing a commercial kit such as, for example, Cell Proliferation XTT Kit, Cat. No. 20-300-1000, Biological Industries Ltd., Kibbutz Beit Haemek, Israel. XTT is a tetrazolium salt which is cleaved to formazan colored compounds by the mitochondrial dehydrogenase enzymes indicating proper mitochondrial activity in intact cells.
(§2) Thereafter, a series of increasing concentrations of the polymers were added. After another 24 hours of incubation, XTT reaction solution was added (50 μl of XTT per 100 μl of cell culture medium). The optical density of the cells was measured at 450 nm by ELISA plate reader after 2-4 hours XTT incubation. Cell viability was determined relative to a control having no polymer added thereto.
“Mouse prostate cancer TRAMP-C2” represents the lethal concentration in μM as measured against TRAMP-C2 cell line, measured as described hereinabove in the cell proliferation XTT assay (column 5 in Table 3);

MCF-7 cell line = format: cell-based; conditions: for CC50: 24 hours incubation, XTT, read-out: Cancer LC50 Human breast cancer MCF-7
Description: Human breast adenocarcinoma cells (MCF-7);
Thereafter, a series of increasing concentrations of the polymers were added. […] The optical density of the cells was measured at 450 nm by ELISA plate reader after 2-4 hours XTT incubation. Cell viability was determined relative to a control having no polymer added thereto.

N-417 cell line = experiment: XTT cell viability assay, N-417 cells; format: cell-based; conditions: 24 hours incubation, XTT; read-out: Cancer LC50 Human small-cell lung carcinoma N-417
Source text: Variant small cell lung cancer cells (N-417, SCLC);
as §1, §2
“Human breast cancer MCF-7” represents the lethal concentration in μM as measured against MCF-7 cell line, measured as described hereinabove in the cell proliferation XTT assay (column 6 in Table 3); “Human small-cell lung carcinoma N-417” represents the lethal concentration in μM as measured against N-417 cell line, measured as described hereinabove in the cell proliferation XTT assay (column 7 in Table 3);

[1] = XTT cell viability assay, non-cancerous cardiac fibroblasts (CF); format: cell-based, rat; conditions: rat, primary non-cancerous cardiac fibroblasts (CF), 24 hours incubation, XTT, non-cancerous cells; read-out: Cancer LC50 Rat primary cardiac fibroblast CF
Source text: Primary non-cancerous rat cardiac fibroblasts (CF);
as §1, §2
“Rat primary cardiac fibroblast CF” represents the lethal concentration in μM as measured against CF cell line, measured as described hereinabove in the cell proliferation XTT assay (column 8 in Table 3);

in vitro = conditions: human, red blood cells
Description: (§3) The polymer's toxic potential was determined against human red blood cells (RBC) by measuring leakage of hemoglobin therefrom in phosphate buffer solution (PBS). Human blood samples were rinsed three times in PBS by centrifugation for 2 minutes at 200×g, and re-suspended in PBS at 5% hematocrit. A 50 μl-fractions of a suspension containing […] RBC were added to test tubes containing 200 μl of polymer solutions (2-fold serial dilutions in PBS), PBS alone (for base-line values), or distilled water (for 100% hemolysis). […] Controls for base-line hemolysis (blank) and 100% hemolysis consisted of RBC suspended in PBS and TritonX100 (0.2%), respectively.

[2] = system: human red blood cells (RBC); experiment: in vitro
Description: as §3

[3] = system: drug-resistant 2008/MRP1 cells; conditions: human, 3 day
[4] = system: drug-resistant 2008/MRP1 cells; experiment: Cytotoxicity against drug-resistant 2008/MRP1 cells; conditions: read-out: LC50 against drug-resistant 2008/MRP1 cells; 1 day exposure (overnight), FIG. 10
[5] = system: ovarian carcinoma 2008 drug-sensitive cells; experiment: Cytotoxicity against drug-sensitive ovarian carcinoma 2008 cells; conditions: read-out: LC50 against drug-sensitive 2008 cells

Row | Compound | CC50 (TRAMP-C2 cell line) [µM] | CC50 (MCF-7 cell line) [µM] | CC50 (N-417 cell line) [µM] | CC50 at 24 h [1] [µM] | HC50 at 3 h (in vitro) [µM] | hemolytic concentration versus cytotoxic concentration against cancer cells [2] | CC50 [3] [µM] | CC50 [4] [µM] | CC50 ([5]; 1 day exposure (overnight), FIG. 10) [µM] | TRAMP-C2 lethal concentration (TRAMP-C2 cell line; mouse prostate cancer TRAMP-C2 cells, XTT assay) [µM] | MCF-7 lethal concentration (MCF-7 cell line; human breast adenocarcinoma MCF-7 cells, XTT assay) [µM] | CC50 ([5]; Homo sapiens, 72 h) [µM] | CC50 ([2]; read-out: LC50 RBC (hemolytic concentration inducing lysis of 50% of human red blood cells), 3 hours incubation at 37° C., hemoglobin leakage assay) [µM]
1 | NCCCCCCCCCCCC(=O)N[C@@H](CCCCN)C(=O)N[C@@H](CCCCN)C(=O)NCCCCCCCCCCCC(=O)N[C@@H](CCCCN)C(=O)N[C@@H](CCCCN)C(=O)NCCCCCCCCCCCC(=O)N[C@@H](CCCCN)C(=O)N[C@@H](CCCCN)C(=O)NCCCCCCCCCCCC(=O)N[C@@H](CCCCN)C(N)=O (H-[12Ado]KK[12Ado]KK[12Ado]KK[12Ado]K-NH2) | 15 | 7 ± 1 | 10 ± 1 | 35 ± 5 | > 100 | more than one order of magnitude higher | 4 | ~15 | ~15 | – | – | – | –
2 | COc1cccc2c1C(=O)c1c(O)c3c(c(O)c1C2=O)C[C@@](O)(C(=O)CO)C[C@@H]3O[C@H]1C[C@H](N)[C@H](O)[C@H](C)O1 [doxorubicin, reference compound] | – | – | – | – | – | – | – | – | – | 0.5 ± 0.5 | 3.3 ± 2 | 0.035 | –
3 | NCCCC[C@H](NC(=O)CCCCCCCCCCCNC(=O)[C@H](CCCCN)NC(=O)[C@H](CCCCN)NC(=O)CCCCCCCCCCCNC(=O)[C@@H](N)CCCCN)C(N)=O [(KNC12K)2NH2] (HELM PEPTIDE1{K.[O=C(CCCCCCCCCCCN[*:1])[*:2]].K.K.[O=C(CCCCCCCCCCCN[*:1])[*:2]].K.[am]}$$$$V2.0) | > 16 | > 16 | > 16 | > 16 | > 100 | – | – | – | – | – | – | – | –
4 | NCCCCCCCCCCCC(=O)N[C@@H](CCCCN)C(=O)NCCCCCCCCCCCC(=O)N[C@@H](CCCCN)C(=O)N[C@@H](CCCCN)C(=O)NCCCCCCCCCCCC(=O)N[C@@H](CCCCN)C(=O)N[C@@H](CCCCN)C(=O)NCCCCCCCCCCCC(=O)N[C@@H](CCCCN)C(N)=O [NC12(KNC12K)3NH2] (H-[12Ado]K[12Ado]KK[12Ado]KK[12Ado]K-NH2) | > 16 | 7 ± 1 | > 16 | 37 ± 1 | > 100 | more than one order of magnitude higher | – | – | – | – | – | – | –
5 | CCCCCCCC(=O)N[C@@H](CCCCN)C(=O)NCCCCCCCCCCCC(=O)N[C@@H](CCCCN)C(=O)N[C@@H](CCCCN)C(=O)NCCCCCCCCCCCC(=O)N[C@@H](CCCCN)C(=O)N[C@@H](CCCCN)C(=O)NCCCCCCCCCCCC(=O)N[C@@H](CCCCN)C(N)=O [C8(KNC12K)3NH2] (Octanoyl-K[12Ado]KK[12Ado]KK[12Ado]K-NH2) | 15 ± 0.7 | 8.7 ± 0.5 | 9 ± 1.4 | 37 ± 1 | 51 ± 6 | – | – | – | – | – | – | – | –
6 | NCCCC[C@H](NC(=O)CCCCCCCCCCCNC(=O)[C@H](CCCCN)NC(=O)[C@H](CCCCN)NC(=O)CCCCCCCCCCCNC(=O)[C@H](CCCCN)NC(=O)[C@H](CCCCN)NC(=O)CCCCCCCCCCCNC(=O)[C@@H](N)CCCCN)C(N)=O [(KNC12K)3NH2] (H-K[12Ado]KK[12Ado]KK[12Ado]K-NH2) | > 16 | > 16 | > 16 | > 16 | > 100 | – | – | – | – | – | – | – | > 100
